In US20130295666A1, “CRYSTALS OF GLUCOKINASE REGULATORY PROTEIN (GKRP)” (Boehringer Ingelheim International GmbH, priority 2011, published 2013):
Where a chain is given by its changes, count along the chain named. Names and notes keep the numbering of the source. One block for each molecule: values may come before it.

Tests used:
rat GKRP = molecular target: T1, rat GKRP (Rattus norvegicus, UniProt Q07071); conditions: Van Schaftingen 1989, Veiga-da-Cunha and Van Schaftingen 2002; cited from earlier work
T1 sequence (Q07071 1-627): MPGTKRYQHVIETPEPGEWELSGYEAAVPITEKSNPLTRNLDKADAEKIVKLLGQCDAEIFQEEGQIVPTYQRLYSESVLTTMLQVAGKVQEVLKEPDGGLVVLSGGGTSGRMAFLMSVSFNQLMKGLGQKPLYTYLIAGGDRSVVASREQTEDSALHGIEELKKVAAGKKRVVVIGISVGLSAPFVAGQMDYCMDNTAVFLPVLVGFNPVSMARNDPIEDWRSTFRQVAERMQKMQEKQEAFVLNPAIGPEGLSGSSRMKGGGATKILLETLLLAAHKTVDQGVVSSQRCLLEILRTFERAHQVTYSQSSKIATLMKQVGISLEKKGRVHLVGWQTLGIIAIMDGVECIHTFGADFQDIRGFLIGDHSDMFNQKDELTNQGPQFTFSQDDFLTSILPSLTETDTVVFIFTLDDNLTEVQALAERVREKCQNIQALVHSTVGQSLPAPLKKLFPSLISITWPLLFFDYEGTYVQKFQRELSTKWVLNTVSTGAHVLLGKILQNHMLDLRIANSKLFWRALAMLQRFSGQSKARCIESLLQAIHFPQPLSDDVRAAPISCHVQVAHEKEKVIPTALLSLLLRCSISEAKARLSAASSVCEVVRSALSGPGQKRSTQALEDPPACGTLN

hGKRP_C-His [1] = molecular target: T2, hGKRP_C-His (Homo sapiens, UniProt Q14397); assay: amide hydrogen (H/D) exchange, ligand-bound vs apo-GKRP; type: binding; conditions: 30 min H/D exchange; six regions; compared to apo-GKRP
T2 construct: made in house; host or cells: High FIVE insect cells (baculovirus, BAC-to-BAC)
T2 sequence (Q14397 with tags, fused parts or gaps): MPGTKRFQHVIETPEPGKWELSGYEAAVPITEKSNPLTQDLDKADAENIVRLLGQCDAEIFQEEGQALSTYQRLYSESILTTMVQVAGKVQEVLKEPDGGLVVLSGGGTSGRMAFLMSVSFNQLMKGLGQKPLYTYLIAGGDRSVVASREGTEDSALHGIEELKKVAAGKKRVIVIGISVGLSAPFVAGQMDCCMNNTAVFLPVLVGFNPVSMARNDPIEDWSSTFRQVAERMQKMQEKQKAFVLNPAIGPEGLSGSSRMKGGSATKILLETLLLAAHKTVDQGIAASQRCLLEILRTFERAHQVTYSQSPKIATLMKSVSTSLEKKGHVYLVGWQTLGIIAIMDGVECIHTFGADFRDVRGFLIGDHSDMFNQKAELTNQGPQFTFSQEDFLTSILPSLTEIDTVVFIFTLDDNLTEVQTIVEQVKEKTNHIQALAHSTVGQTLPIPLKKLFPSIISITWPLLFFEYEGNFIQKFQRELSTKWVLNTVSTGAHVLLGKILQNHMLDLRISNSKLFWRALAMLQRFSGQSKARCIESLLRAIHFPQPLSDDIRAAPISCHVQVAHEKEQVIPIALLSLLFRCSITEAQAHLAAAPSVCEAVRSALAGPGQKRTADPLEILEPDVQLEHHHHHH
Protocol: This experiment was performed to map the potential ligand binding sites via the amide hydrogen exchange behaviour of apo-GKRP in comparison to ligand-bound GKRP.
Amide hydrogen (H/D) exchange was initiated by a 20-fold dilution of 30 pmol hGKRP_C-His with or without ligand into D2O containing 100 mM HEPES, pD 7.4, 200 mM KCl, 100 mM MgCl2, and 2 mM DTT and incubated at room temperature.
After various time points (10 sec, 1 min and 30 min), the exchange reaction was quenched by decreasing the temperature to 0° C. and the pH to 2.5 with quench buffer (500 mM KH2PO4/H3PO4, pH 2.5, 2 M Urea, and 2 mM TCEP). Quenched samples were directly injected into an HPLC setup and analyzed on an electrospray ionization-quadrupole time of flight-mass spectrometer (QSTAR XL, Applied Biosystems) as described by Rist et al. (2003): Mapping temperature-induced conformational changes in the Escherichia coli heat shock transcription factor sigma 32 by amide hydrogen exchange, J. Biol. Chem., 278, 51415-51421.
The HPLC setup contained a column (2×20 mm) packed with Poroszyme immobilized pepsin (Applied Biosystems, Darmstadt, Germany). […] The deuterium content of the peptides was calculated by using the average mass difference between the isotopic envelopes of the deuterated and the undeuterated peptides. […]

hGKRP_C-His_K326T/K327T = molecular target: T3, hGKRP_C-His_K326T/K327T (Homo sapiens, UniProt Q14397, K326T/K327T); assay: F1P competition with F6P in the coupled GK assay, using hGKRP_C-His_K326T/K327T; type: biochemical; conditions: in the presence of 6 μM F6P, read-out: EC50 of F1P to increase apparent GK activity (inactive GK-GKRP-F6P complex towards free GK)
T3 construct: made in house; host or cells: High FIVE insect cells (baculovirus, BAC-to-BAC)
T3 sequence (Q14397 with tags, fused parts or gaps K326T/K327T): T2 sequence (Q14397 with tags, fused parts or gaps) with K326T, K327T
From the text: (§1) GKRP preparations according to examples 1 and 2 have been examined with respect to their enzymatic activity. The applied enzymatic assay measures the effect of GKRP on glucokinase activity in the form of a glucose-6-phosphate dehydrogenase coupled assay at room temperature which is a modification of the method described by Van Schaftingen and Brocklehurst et al. (Van Schaftingen, E. (1989): A protein from rat liver confers to glucokinase the property of being antagonistically regulated by fructose 6-phosphate and fructose 1-phosphate; Eur. J. Biochem., 179, 179-184; Brocklehurst, K. J., Davies, R. A. and Agius, L. (2004): Differences in regulatory properties between human and rat glucokinase regulatory protein; Biochem. J., 378, 693-697).
(§2) The reaction mixture contained 150 mM KCl, 100 mM Hepes, 1 mM ATP, 1 mM MgCl2, 2 mM NADP^+, 2 mM dithiothreitol, pH 7.4, 5 units/ml glucose-6-phosphate dehydrogenase, 0.5 mg/ml BSA, 10 mM glucose, 6 μM fructose 6-P, 15 nM human liver glucokinase and 100 nM of the respective GKRP. The enzymatic reaction was started by the addition of ATP and glucose. The increase in optical density was measured at a wavelength 340 nm over 10 minutes. From these kinetic data, the slope was calculated and graphically depicted.
(§3) This effect was investigated using both hGKRP_C-His as well as hGKRP_C-His_K326T/K327T. […]

hGKRP_C-His [2] = molecular target: T2, hGKRP_C-His; assay: F1P competition with F6P in the coupled GK assay, using hGKRP_C-His; type: biochemical; conditions: in the presence of 6 μM F6P, read-out: EC50 of F1P to increase apparent GK activity (inactive GK-GKRP-F6P complex towards free GK)
From the text: as §1, §2, §3

human liver glucokinase [3] = assay: glucose-6-phosphate dehydrogenase coupled assay measuring the effect of GKRP on glucokinase activity; type: biochemical; conditions: GKRP dosed in excess over GK (15 nM), alone
From the text: as §1, §2

human liver glucokinase [4] = molecular target: T4, human liver glucokinase (human, UniProt P35557-2 1-466, limits assumed); assay: cell-based or functional assay
T4 sequence (looked up): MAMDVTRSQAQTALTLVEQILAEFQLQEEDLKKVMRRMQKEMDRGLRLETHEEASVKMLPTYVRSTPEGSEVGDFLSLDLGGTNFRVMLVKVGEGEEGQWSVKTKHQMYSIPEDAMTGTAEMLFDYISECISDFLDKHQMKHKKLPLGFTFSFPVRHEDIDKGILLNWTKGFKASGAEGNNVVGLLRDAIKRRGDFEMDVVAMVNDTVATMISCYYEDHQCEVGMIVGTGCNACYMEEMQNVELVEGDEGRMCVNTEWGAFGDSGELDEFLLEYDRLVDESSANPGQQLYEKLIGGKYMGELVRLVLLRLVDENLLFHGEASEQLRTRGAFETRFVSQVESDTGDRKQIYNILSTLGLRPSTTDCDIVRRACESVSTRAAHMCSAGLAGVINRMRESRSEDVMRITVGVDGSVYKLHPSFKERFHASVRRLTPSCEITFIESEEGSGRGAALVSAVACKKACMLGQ

protection of GKRP regions against H/D exchange by the ligand (hGKRP_C-His [1]): protection against H/D exchange
Molecule: O=C(CO)[C@@H](O)[C@H](O)[C@H](O)COP(=O)(O)O [F6P, fructose-6-phosphate]
Kd (rat GKRP): 20000 nM

EC50 (hGKRP_C-His_K326T/K327T): 5080 ± 1380 nM
protection of GKRP regions against H/D exchange by the ligand (hGKRP_C-His [1]): protection against H/D exchange
EC50 (hGKRP_C-His [2]): 6280 ± 1070 nM
Molecule: O=C(COP(=O)(O)O)[C@@H](O)[C@H](O)[C@H](O)CO [F1P, fructose-1-phosphate]
Kd (rat GKRP): 1000 nM

inhibition of the apparent GK enzymatic activity (human liver glucokinase [3]): > 90%
IC50 of inhibition of GK activity in the presence of 6 µM fructose 6-phosphate (human liver glucokinase [4]): 74 nM
IC50 of inhibition of apparent GK enzymatic activity (glucose-6-phosphate dehydrogenase coupled assay), GKRP alone (human liver glucokinase [4]): 124 nM
B1: hGKRP_C-His (human glucokinase regulatory protein with C-terminal LEHHHHHH octapeptide) (other)
chain: T2 sequence (Q14397 with tags, fused parts or gaps)

IC50 of decrease of apparent GK activity in the presence of 6 µM F6P (human liver glucokinase [4]): 71 nM
IC50 of decrease of apparent GK activity, GKRP alone (human liver glucokinase [4]): 116 nM
B2: hGKRP_C-His_K326T/K327T (other)
chain: T2 sequence (Q14397 with tags, fused parts or gaps) with K326T, K327T
